Activity calls are given as the source filed them.
Columns and labels:
Leucine aminopeptidase = molecular target: T1, Leucine aminopeptidase (Plasmodium falciparum 3D7, UniProt Q8IL11); experiment: P. falciparum M17LAP inhibitors, primary screen, biochemical, fluorogenic H-Leu-NHMec substrate, 1536-well (AID 1619); format: functional
T1 sequence (Q8IL11 whole entry): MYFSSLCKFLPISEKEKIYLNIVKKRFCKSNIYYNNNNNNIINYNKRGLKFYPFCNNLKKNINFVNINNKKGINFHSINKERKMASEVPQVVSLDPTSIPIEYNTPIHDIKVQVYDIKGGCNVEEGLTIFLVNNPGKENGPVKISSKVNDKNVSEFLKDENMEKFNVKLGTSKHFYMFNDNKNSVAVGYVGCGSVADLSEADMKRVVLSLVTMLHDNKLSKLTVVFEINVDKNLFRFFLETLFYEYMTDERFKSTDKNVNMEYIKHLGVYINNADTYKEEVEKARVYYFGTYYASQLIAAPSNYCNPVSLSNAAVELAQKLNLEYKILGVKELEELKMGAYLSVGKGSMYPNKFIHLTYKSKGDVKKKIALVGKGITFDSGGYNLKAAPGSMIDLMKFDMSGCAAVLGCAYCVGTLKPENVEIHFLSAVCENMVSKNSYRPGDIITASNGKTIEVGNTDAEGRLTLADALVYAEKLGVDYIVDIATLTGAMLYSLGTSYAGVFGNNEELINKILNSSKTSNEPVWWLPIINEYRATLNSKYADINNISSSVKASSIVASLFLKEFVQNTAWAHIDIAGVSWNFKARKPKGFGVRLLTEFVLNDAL

Aminopeptidase N = molecular target: T2, Aminopeptidase N (Plasmodium falciparum FcB1/Columbia, UniProt O96935); experiment: P. falciparum M1AAP inhibitors, biochemical, fluorogenic H-Leu-NHMec substrate, 1536-well (AID 1445); set-up: species or system Plasmodium falciparum 3D7, 3D7
T2 sequence (O96935 whole entry): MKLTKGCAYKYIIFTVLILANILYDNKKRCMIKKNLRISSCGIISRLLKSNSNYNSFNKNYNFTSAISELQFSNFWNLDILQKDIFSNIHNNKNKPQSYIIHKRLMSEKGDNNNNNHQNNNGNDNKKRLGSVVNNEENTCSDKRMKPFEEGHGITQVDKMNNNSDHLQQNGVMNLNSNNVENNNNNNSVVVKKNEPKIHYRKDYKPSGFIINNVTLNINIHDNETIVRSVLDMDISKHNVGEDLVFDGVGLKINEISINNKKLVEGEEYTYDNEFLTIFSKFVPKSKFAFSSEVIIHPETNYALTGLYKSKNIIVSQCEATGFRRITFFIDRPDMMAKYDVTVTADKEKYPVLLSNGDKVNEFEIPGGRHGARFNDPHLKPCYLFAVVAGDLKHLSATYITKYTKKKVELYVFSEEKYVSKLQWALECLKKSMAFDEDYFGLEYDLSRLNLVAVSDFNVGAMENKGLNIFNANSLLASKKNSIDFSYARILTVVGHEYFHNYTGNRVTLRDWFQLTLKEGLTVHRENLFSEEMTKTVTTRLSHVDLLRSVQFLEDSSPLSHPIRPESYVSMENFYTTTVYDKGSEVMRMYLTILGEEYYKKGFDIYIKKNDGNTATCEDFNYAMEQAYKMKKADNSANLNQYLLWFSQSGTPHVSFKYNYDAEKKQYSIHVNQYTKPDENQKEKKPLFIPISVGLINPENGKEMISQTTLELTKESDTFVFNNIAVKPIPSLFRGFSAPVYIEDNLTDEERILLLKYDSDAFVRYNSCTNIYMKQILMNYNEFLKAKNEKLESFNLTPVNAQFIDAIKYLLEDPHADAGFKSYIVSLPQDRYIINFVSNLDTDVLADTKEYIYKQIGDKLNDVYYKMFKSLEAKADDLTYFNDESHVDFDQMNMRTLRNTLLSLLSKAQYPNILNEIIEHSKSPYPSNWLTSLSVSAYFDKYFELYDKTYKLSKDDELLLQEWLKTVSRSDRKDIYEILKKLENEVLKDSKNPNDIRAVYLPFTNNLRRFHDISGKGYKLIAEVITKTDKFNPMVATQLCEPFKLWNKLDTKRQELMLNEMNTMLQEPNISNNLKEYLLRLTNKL

[1] = molecular target: Voltage-dependent T-type calcium channel subunit alpha-1H (Homo sapiens, UniProt O95180); format: functional;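 note: channel activity triggered by adding a high calcium stimulation buffer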
[2] = inhibitors of intracellular T. cruzi replication, confirmation, NIH3T3 host cells, beta-gal luminescence (AID 2044); format: functional, cell-based;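 note: intracellular parasites grown in NIH/3T3 mouse fibroblasts as host cells; luminescent beta-galactosidase reporter signal from transgenic T. cruzi replicating inside host cells; inhibitors lower the luminescence signal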
[3] = cytotoxicity toward NIH3T3 fibroblasts, dose response, counter-screen, cell-based, ATP luminescence, mouse fibroblasts (AID 2010); format: functional;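 note: cells exposed to compound for about 90 hours before reading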
[4] = molecular target: Heat shock protein HSP 90-alpha (Homo sapiens, UniProt P07900); format: functional, organism-based
[5] = test system: Streptococcus sp. 'group A'; experiment: growth inhibition of control SK(-) GAS strain, dose response, counter-screen for streptokinase expression inhibitor project, luminescence, kanamycin, BacTiterGlo, confirmation (AID 1900); format: functional, organism-based
Streptococcus = experiment: Group A Streptococcus viability loss, dose response, counter-screen for streptokinase expression inhibitor project, luminescence, BacTiterGlo (AID 1915); format: functional, organism-based;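 note: potency for reduction of bacterial viability or growth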
[6] = NIH-3T3 fibroblast cytotoxicity, dose response, cytotoxicity control, cell-based, fluorescence, Alamar Blue, secondary assay (AID 2327); format: functional;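 note: NIH-3T3 mouse fibroblasts cultured with fluconazole at 8 µg/mL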
NS3 = NS3 (Hepatitis C virus, UniProt A3EZJ3); experiment: PubChem AID 2173; set-up: species or system Hepacivirus hominis
Streptokinase A = molecular target: T3, Streptokinase A (Streptococcus pyogenes serotype M1, UniProt P10520); experiment: S. pyogenes streptokinase expression inhibitors, potency, dose response, plasminogen activation absorbance, OD405 (AID 1914); format: functional, Streptococcus pyogenes M1 GAS;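 note: secreted streptokinase activity via plasminogen activation per viability signal from cell pellet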
T3 sequence (P10520 whole entry): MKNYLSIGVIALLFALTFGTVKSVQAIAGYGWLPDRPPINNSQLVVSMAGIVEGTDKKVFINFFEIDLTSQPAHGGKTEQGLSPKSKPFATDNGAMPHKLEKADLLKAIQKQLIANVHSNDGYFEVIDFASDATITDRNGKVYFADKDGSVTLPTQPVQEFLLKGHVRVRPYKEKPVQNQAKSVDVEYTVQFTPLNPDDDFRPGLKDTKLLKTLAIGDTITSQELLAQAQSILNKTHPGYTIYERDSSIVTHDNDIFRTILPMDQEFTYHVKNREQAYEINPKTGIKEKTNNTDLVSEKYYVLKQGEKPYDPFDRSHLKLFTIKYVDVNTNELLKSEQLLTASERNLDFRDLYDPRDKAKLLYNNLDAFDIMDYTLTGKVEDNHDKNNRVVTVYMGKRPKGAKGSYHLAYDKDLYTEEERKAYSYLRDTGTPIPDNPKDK

[7] = C. albicans growth with fluconazole, confirmation, fluorescence, retest (AID 2467); format: functional, cell-based
HT-1080 = experiment: cytotoxicity in HT1080 fibrosarcoma cells, cell-based, fluorescence readout (AID 620); format: functional; details: Homo sapiens
[8] = cytotoxicity in HEK-293T cells, dose response, cytotoxicity control for BCR NF-kB inhibitor project, luminescence, B-cell screen hits (AID 489021); format: functional, cell-based;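 note: HEK-293T cells carrying an NF-kB luciferase reporter; cells exposed to compound for about 14 hours before viability readout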
[9] = molecular target: Luciferin 4-monooxygenase (Photinus pyralis, UniProt P08659); experiment: Counter Screen for Luciferase-based Assay Positives. [Related pubchem assays: 620, 618, 411 ]
[10] = inhibitors of SNCA 5'UTR-driven reporter translation, confirmation, H4 neuroglioma cells, luminescence (AID 1988); format: functional, cell-based
[11] = inhibitors of firefly luciferase expression or activity, dose response, H4 neuroglioma cells, luminescence (AID 1990); format: functional, cell-based
[12] = A Cell Based Secondary Assay To Explore Cytotoxicity of Compounds that Sensitize Mycobacterium Tuberculosis to Beta-Lactam Antibiotics.; format: functional

NS3, sequence (A3EZJ3 whole entry): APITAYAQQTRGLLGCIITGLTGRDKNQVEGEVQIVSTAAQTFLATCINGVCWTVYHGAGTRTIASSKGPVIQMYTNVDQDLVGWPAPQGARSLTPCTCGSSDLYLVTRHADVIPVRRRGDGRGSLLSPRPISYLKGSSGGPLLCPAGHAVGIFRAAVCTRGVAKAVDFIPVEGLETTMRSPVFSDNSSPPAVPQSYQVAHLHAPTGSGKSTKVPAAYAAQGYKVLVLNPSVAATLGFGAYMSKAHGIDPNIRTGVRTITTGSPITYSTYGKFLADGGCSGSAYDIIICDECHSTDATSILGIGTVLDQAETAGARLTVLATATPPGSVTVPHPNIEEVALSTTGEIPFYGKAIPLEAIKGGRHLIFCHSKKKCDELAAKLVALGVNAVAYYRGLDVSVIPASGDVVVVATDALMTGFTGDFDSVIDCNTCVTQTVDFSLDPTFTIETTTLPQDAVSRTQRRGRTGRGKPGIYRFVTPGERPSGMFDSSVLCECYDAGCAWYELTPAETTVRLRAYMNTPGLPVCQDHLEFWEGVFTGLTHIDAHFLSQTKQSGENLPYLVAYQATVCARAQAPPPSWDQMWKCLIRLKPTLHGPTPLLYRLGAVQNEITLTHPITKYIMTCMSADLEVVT
Voltage-dependent T-type calcium channel subunit alpha-1H, sequence (O95180 whole entry): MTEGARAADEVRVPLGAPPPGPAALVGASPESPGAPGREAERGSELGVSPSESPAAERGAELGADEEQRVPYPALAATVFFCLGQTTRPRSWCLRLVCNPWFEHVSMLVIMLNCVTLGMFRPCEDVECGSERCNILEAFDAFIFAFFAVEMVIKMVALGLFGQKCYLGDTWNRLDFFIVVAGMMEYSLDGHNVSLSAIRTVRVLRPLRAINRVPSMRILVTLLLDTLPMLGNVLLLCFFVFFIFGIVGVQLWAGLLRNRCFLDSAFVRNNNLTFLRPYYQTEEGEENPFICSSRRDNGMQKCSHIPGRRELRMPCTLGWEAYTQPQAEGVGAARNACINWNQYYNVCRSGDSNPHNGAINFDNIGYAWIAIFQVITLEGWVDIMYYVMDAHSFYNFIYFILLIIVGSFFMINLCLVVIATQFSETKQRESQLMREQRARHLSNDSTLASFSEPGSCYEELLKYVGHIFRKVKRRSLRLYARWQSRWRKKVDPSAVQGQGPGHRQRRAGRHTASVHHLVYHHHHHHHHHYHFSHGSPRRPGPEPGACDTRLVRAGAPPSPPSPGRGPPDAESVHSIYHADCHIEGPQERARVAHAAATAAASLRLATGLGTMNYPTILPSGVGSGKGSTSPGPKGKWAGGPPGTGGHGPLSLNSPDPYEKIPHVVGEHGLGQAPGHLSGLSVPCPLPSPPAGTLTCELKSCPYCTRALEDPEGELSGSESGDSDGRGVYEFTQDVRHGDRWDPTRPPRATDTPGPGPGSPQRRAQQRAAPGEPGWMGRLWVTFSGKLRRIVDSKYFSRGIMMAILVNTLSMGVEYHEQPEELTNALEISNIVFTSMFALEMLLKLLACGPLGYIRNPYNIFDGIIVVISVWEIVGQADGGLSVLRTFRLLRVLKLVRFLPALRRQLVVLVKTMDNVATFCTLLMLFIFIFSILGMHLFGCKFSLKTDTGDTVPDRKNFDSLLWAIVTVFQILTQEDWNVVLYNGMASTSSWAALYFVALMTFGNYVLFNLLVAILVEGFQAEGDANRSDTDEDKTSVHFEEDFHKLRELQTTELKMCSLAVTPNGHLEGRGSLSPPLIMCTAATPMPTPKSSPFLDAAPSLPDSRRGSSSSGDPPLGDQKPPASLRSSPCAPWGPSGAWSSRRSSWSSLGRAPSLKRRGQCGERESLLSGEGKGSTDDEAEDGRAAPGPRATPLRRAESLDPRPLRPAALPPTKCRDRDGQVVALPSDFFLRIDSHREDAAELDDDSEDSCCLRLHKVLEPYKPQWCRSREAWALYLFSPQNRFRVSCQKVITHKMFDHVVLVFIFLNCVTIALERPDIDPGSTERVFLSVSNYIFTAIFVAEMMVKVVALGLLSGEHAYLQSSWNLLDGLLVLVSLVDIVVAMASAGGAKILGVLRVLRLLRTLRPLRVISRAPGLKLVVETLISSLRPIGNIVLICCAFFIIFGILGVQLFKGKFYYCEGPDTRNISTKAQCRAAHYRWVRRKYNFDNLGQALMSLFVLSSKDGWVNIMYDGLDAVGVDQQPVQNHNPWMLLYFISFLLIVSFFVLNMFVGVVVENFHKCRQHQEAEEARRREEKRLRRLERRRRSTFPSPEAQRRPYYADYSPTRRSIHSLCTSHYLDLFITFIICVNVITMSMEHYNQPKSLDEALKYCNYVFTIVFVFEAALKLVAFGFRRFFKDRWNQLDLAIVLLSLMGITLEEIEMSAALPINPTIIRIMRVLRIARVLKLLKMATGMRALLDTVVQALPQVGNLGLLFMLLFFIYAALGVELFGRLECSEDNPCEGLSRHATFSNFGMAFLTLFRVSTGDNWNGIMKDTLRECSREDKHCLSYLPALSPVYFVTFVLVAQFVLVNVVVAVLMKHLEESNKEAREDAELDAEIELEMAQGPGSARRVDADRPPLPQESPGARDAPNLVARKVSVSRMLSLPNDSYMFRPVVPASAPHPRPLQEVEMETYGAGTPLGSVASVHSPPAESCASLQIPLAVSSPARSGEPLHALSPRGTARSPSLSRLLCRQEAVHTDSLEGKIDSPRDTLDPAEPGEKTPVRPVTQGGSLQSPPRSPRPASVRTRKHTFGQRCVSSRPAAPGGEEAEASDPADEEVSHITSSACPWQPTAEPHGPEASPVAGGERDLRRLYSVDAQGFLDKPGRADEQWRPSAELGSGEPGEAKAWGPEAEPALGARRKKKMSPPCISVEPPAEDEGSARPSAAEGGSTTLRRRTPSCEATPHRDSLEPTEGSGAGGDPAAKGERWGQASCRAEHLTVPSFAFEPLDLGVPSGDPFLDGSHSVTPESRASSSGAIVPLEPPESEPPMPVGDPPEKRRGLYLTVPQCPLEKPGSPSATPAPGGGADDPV
Luciferin 4-monooxygenase, sequence (P08659 whole entry): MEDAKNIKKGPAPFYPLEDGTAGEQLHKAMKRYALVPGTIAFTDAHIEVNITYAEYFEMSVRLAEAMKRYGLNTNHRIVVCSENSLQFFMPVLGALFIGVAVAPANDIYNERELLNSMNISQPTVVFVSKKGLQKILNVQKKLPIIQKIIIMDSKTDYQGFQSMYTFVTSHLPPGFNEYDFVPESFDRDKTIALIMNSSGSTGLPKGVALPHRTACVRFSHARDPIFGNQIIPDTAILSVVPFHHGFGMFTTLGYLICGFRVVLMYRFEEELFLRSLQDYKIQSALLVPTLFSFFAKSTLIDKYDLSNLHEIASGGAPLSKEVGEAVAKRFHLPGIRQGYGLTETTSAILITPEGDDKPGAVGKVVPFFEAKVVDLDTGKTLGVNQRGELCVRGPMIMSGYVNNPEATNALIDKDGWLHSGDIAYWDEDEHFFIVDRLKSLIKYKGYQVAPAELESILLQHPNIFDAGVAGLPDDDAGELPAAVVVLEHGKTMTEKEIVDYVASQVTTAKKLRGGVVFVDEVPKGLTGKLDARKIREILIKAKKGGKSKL

O=C(NCc1ccccc1)c1ccc2c(=O)[nH]c3c(C(=O)NCC4CCCO4)sc(=S)n3c2c1 (configuration not stated)
IC50 (Leucine aminopeptidase): 8.61 µM (active)
IC50 (Aminopeptidase N): 29.2 µM (active)

Cc1ccc(NC(=O)C(Cc2ccccc2)N2C(=O)C3C4CCC(C4)C3C2=O)cc1Cl (configuration not stated)
EC50 [1]: 5.73 µM (active)
EC50 [2]: 0.871 µM (active)
EC50 [3]: > 60 µM (not active)

Cc1ccc(/C=C/C(=O)c2ccccc(=O)c2O)c(C)c1
AC50 [4]: 2.05 µM (active)
EC50 [5]: 5.22 µM (active)
EC50 (Streptococcus): 7.6 µM (active)
EC50 [6]: > 160 µM (inactive)
IC50 (NS3): 2.9 µM (active)
EC50 (Streptokinase A): > 150 µM (not active)
EC50 [7]: 1.46 µM (active)

Cc1nc2cc(-c3cccc(F)c3)nn2c(C)c1CCC(=O)NC(C)CCc1ccco1 (configuration not stated)
EC50 (HT-1080): > 50 µM (not active)
IC50 [8]: > 80 µM (inactive)
EC50 [9]: 0.27 µM (active)
EC50 [10]: 5.87 µM (active)
EC50 [11]: 2.36 µM (active)

O=C1OC(c2ccco2)=N/C1=C\c1ccc(-c2cccc(C(F)(F)F)c2)o1
IC50 (NS3): 22.1 µM (not active)

O=C1N=C(N2CCCC2)S/C1=C\c1cccc(Br)c1
CC50 [12]: > 40 µM (active)

O=C(Nc1nc2nc(-c3ccccc3)cc(-c3ccccc3)n2n1)c1ccco1
IC50 [8]: > 80 µM (inactive)

COc1ccc(-c2csc(Nc3ncccc3C)n2)cc1OC
CC50 [12]: > 40 µM (active)

COc1cc(/C=C/C(=O)OCC(=O)Nc2cc(C)c(C)cc2[N+](=O)[O-])ccc1O
CC50 [12]: > 40 µM (active)

Source: ChEMBL document CHEMBL1201862, “PubChem BioAssay data set” (2004)
